Experimental data published in patent publication US8709398B2, “Probiotic Bifidobacterium strains” (Alimentary Health Limited, priority 2007, dated 2014).

Test system: B. longum AH1205
Assay: Antibiotic sensitivity, minimum inhibitory concentration (MIC)
Type: cell-based, Bifidobacterium longum
Details: against B. longum AH1205

SMILES | minimum inhibitory concentration (MIC)
CCC[C@@H]1C[C@@H](C(=O)N[C@@H]([C@H]2O[C@H](SC)[C@H](O)[C@@H](O)[C@H]2O)[C@H](C)Cl)N(C)C1 [clindamycin] | 0.032
Cc1ncc([N+](=O)[O-])n1CCO [metronidazole] | > 256
CN[C@H](CC(C)C)C(=O)N[C@H]1C(=O)N[C@@H](CC(N)=O)C(=O)N[C@H]2C(=O)N[C@H]3C(=O)N[C@H](C(=O)N[C@H](C(=O)O)c4cc(O)cc(O)c4-c4cc3ccc4O)[C@H](O)c3ccc(c(Cl)c3)Oc3cc2cc(c3O[C@@H]2O[C@H](CO)[C@@H](O)[C@H](O)[C@H]2O[C@H]2C[C@](C)(N)[C@H](O)[C@H](C)O2)Oc2ccc(cc2Cl)[C@H]1O [vancomycin] | 0.75
